Test results published in the supplement of paper PMC11061612.

Experiments:
[1] = test system: MFE-296 (Endometrial Carcinoma); test: combination Emax (second highest fraction inhibited in the dose matrix, 72 h); higher = more inhibition; extreme values may be limits of the assay
Summary of the method: (§1)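 After 24 hours at 37°C and 5% CO2 in 1536-well plates, cells in DMEM/F12 or RPMI plus 10% FBS received two-drug dose matrices for 72 hours. Viability came from CellTiter-Glo 2.0 luminescence and was scaled as inhibition, anchored at 0 by vehicle wells and at 1 by blank wells. Combination Emax is taken as the second-highest inhibition in the matrix, and Bliss excess as the observed combination effect less EA + EB − EA·EB, with EA and EB the single-agent effects.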

[2] = test system: EC-GI-10 (Esophageal Squamous Cell Carcinoma); test: as above
Summary of the method: as §1

[3] = test system: SNU-5 (Gastric Carcinoma); test: as above
Summary of the method: as §1

NOS-1 (Osteosarcoma) = test: as above
Summary of the method: as §1

[4] = test system: COLO-205 (Colorectal Carcinoma); test: as above
Summary of the method: as §1

[5] = test system: LS-180 (Colorectal Carcinoma); test: as above
Summary of the method: as §1

AGS (Gastric Carcinoma) [6] = test: as above
Summary of the method: as §1

[7] = test system: KP-1N (Pancreatic Carcinoma); test: as above
Summary of the method: as §1

[8] = test system: Calu-3 (Lung Adenocarcinoma); test: as above
Summary of the method: as §1

[9] = test system: MDA-MB-361 (Breast Carcinoma); test: as above
Summary of the method: as §1

[10] = test system: TE-15 (Esophageal Squamous Cell Carcinoma); test: as above
Summary of the method: as §1

[11] = test system: HuP-T4 (Pancreatic Carcinoma); test: as above
Summary of the method: as §1

[12] = test system: LU-135 (Small Cell Lung Carcinoma); test: as above
Summary of the method: as §1

[13] = test system: B-CPAP (Thyroid Gland Carcinoma); test: as above
Summary of the method: as §1

[14] = test system: MFE-296 (Endometrial Carcinoma); test: Bliss excess, mean over the matrix (fraction); higher = more synergy
Summary of the method: as §1

[15] = test system: TE-9 (Esophageal Squamous Cell Carcinoma); test: as above
Summary of the method: as §1

KELLY (Neuroblastoma) = test: as above
Summary of the method: as §1

AGS (Gastric Carcinoma) [16] = test: as above
Summary of the method: as §1

[17] = test system: MDA-MB-361 (Breast Carcinoma); test: as above
Summary of the method: as §1

[18] = test system: SK-ES-1 (Ewing's Sarcoma); test: as above
Summary of the method: as §1
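Throughout, for Bliss excess, mean over the matrix: after 72 h of two-drug dosing.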

## C=CCn1c(=O)c2cnc(Nc3ccc(N4CCN(C)CC4)cc3)nc2n1-c1cccc(C(C)(C)O)n1 [AZD1775] + O=C(c1cc(Cc2n[nH]c(=O)c3ccccc23)ccc1F)N1CCN(C(=O)C2CC2)CC1 [Olaparib] (first compound max 1 µM, partner max 10 µM)
[1]
  combination Emax: 0.279
[2]
  combination Emax: 0.831
[3]
  combination Emax: 0.433
NOS-1 (Osteosarcoma)
  combination Emax: 0.376
[4]
  combination Emax: 0.336
[5]
  combination Emax: 0.574
AGS (Gastric Carcinoma) [6]
  combination Emax: 0.547
[7]
  combination Emax: 0.359
[8]
  combination Emax: 0.173
[9]
  combination Emax: 0.861
[10]
  combination Emax: 0.382
[11]
  combination Emax: 0.251
[12]
  combination Emax: 0.642
[13]
  combination Emax: 0.456
[14]
  Bliss excess: -0.0218
[15]
  Bliss excess: -0.0271
KELLY (Neuroblastoma)
  Bliss excess: 0.0038
AGS (Gastric Carcinoma) [16]
  Bliss excess: 0.0116
[17]
  Bliss excess: -0.0357
[18]
  Bliss excess: 0.0511

## CCN(CCO)CCCOc1ccc2c(Nc3cc(CC(=O)Nc4cccc(F)c4)[nH]n3)ncnc2c1 [AZD2811] + C=CCn1c(=O)c2cnc(Nc3ccc(N4CCN(C)CC4)cc3)nc2n1-c1cccc(C(C)(C)O)n1 [AZD1775] (first compound max 1 µM, partner max 1 µM)
[1]
  combination Emax: 0.152
[2]
  combination Emax: 0.849
[3]
  combination Emax: 0.581
NOS-1 (Osteosarcoma)
  combination Emax: 0.244
[4]
  combination Emax: 0.854
[5]
  combination Emax: 0.42
AGS (Gastric Carcinoma) [6]
  combination Emax: 0.6
[7]
  combination Emax: 0.401
[8]
  combination Emax: 0.0931
[9]
  combination Emax: 0.801
[10]
  combination Emax: 0.496
[11]
  combination Emax: 0.27
[12]
  combination Emax: 0.921
[13]
  combination Emax: 0.334
[14]
  Bliss excess: -0.0245
[15]
  Bliss excess: -0.0285
KELLY (Neuroblastoma)
  Bliss excess: 0.0569
AGS (Gastric Carcinoma) [16]
  Bliss excess: 0.0156
[17]
  Bliss excess: -0.0044
[18]
  Bliss excess: 0.028

## COc1nnc2ccc(N3CCC(c4ccc(OCCN5CCN(C)C(=O)[C@H]5C)cc4)CC3)nn12 [AZD5153] + CN(CC[C@H](CSC1=CC=CC=C1)NC2=C(C=C(C=C2)S(=O)(=O)NC(=O)C3=CC=C(C=C3)N4CCC(CC4)[C@H](C5=CC=CC=C5C6=CC=C(C=C6)Cl)O)S(=O)(=O)C(F)(F)F)CCO [AZD4320] (first compound max 1 µM, 7x7, partner max 1 µM)
[1]
  combination Emax: 0.31
[2]
  combination Emax: 0.275
[3]
  combination Emax: 0.506
NOS-1 (Osteosarcoma)
  combination Emax: 0.936
[4]
  combination Emax: 0.95
AGS (Gastric Carcinoma) [6]
  combination Emax: 0.918
[7]
  combination Emax: 0.53
[9]
  combination Emax: 0.814
[11]
  combination Emax: 0.479
[12]
  combination Emax: 1
[13]
  combination Emax: 0.925
[14]
  Bliss excess: 0.0104
AGS (Gastric Carcinoma) [16]
  Bliss excess: -0.03
[17]
  Bliss excess: 0.0967
[18]
  Bliss excess: 0.0211

## Cc1c2c(nn1C)CSCc1cc(n(C)n1)CSc1cc(c3ccccc3c1)OCCCc1c(C(=O)O)n(C)c3c-2c(Cl)ccc13 [AZD5991] + C1CN(CCC1(C(=O)N[C@@H](CCO)C2=CC=C(C=C2)Cl)N)C3=NC=NC4=C3C=CN4 [Capivasertib] (first compound max 1 µM, 7x7, partner max 3 µM)
[1]
  combination Emax: 0.825
[2]
  combination Emax: 0.775
[3]
  combination Emax: 0.288
NOS-1 (Osteosarcoma)
  combination Emax: 0.79
[4]
  combination Emax: 0.313
[5]
  combination Emax: 0.315
AGS (Gastric Carcinoma) [6]
  combination Emax: 0.335
[7]
  combination Emax: 0.249
[8]
  combination Emax: 0.182
[9]
  combination Emax: 0.718
[10]
  combination Emax: 0.36
[11]
  combination Emax: 0.351
[12]
  combination Emax: 0.323
[14]
  Bliss excess: 0.094
[15]
  Bliss excess: 0.0095
KELLY (Neuroblastoma)
  Bliss excess: 0.0246
AGS (Gastric Carcinoma) [16]
  Bliss excess: 0.0013
[17]
  Bliss excess: 0.0211
[18]
  Bliss excess: 0.0217

## Cc1c2c(nn1C)CSCc1cc(n(C)n1)CSc1cc(c3ccccc3c1)OCCCc1c(C(=O)O)n(C)c3c-2c(Cl)ccc13 [AZD5991] + C[C@@H](Nc1cc(F)cc(F)c1)c1cc(C(=O)N(C)C)cc2c(=O)cc(N3CCOCC3)oc12 [AZD8186] (first compound max 1 µM, 7x7, partner max 3 µM)
[1]
  combination Emax: 0.265
[2]
  combination Emax: 0.559
[3]
  combination Emax: 0.427
NOS-1 (Osteosarcoma)
  combination Emax: 0.84
[4]
  combination Emax: 0.14
AGS (Gastric Carcinoma) [6]
  combination Emax: 0.246
[7]
  combination Emax: 0.274
[8]
  combination Emax: 0.175
[9]
  combination Emax: 0.806
[10]
  combination Emax: 0.223
[11]
  combination Emax: 0.442
[12]
  combination Emax: 0.417
[13]
  combination Emax: 0.227
[14]
  Bliss excess: 0.0197
[15]
  Bliss excess: -0.0274
KELLY (Neuroblastoma)
  Bliss excess: 0.0259
AGS (Gastric Carcinoma) [16]
  Bliss excess: 0.0073
[17]
  Bliss excess: -0.0102
[18]
  Bliss excess: 0.023

## CS(=O)(=O)CCNCc1ccc(-c2ccc3ncnc(Nc4ccc(OCc5cccc(F)c5)c(Cl)c4)c3c2)o1 [Lapatinib] + Cn1cnc2c(F)c(Nc3ccc(Br)cc3Cl)c(C(=O)NOCCO)cc21 [Selumetinib] (first compound max 10 µM, 7x7, partner max 10 µM)
[5]
  combination Emax: 0.758
[8]
  combination Emax: 0.933
[10]
  combination Emax: 0.775
[15]
  Bliss excess: -0.0341
KELLY (Neuroblastoma)
  Bliss excess: -0.0152

## CS(=O)(=O)CCNCc1ccc(-c2ccc3ncnc(Nc4ccc(OCc5cccc(F)c5)c(Cl)c4)c3c2)o1 [Lapatinib] + NC1(c2ccc(-c3nc4ccn5c(=O)[nH]nc5c4cc3-c3ccccc3)cc2)CCC1 [MK-2206] (first compound max 10 µM, 7x7, partner max 10 µM)
[1]
  combination Emax: 0.296
[3]
  combination Emax: 0.387
[5]
  combination Emax: 0.795
[8]
  combination Emax: 0.954
[10]
  combination Emax: 0.831
[13]
  combination Emax: 0.909
[14]
  Bliss excess: -0.026
[15]
  Bliss excess: -0.0208
KELLY (Neuroblastoma)
  Bliss excess: 0.0098

## CCc1c2c(nc3ccc(O)cc13)-c1cc3c(c(=O)n1C2)COC(=O)[C@]3(O)CC [SN-38] + O=C(c1cc(Cc2n[nH]c(=O)c3ccccc23)ccc1F)N1CCN(C(=O)C2CC2)CC1 [Olaparib] (first compound max 0.3 µM, 7x7, partner max 10 µM)
[1]
  combination Emax: 0.595
NOS-1 (Osteosarcoma)
  combination Emax: 0.134
[4]
  combination Emax: 0.618
[5]
  combination Emax: 0.748
AGS (Gastric Carcinoma) [6]
  combination Emax: 0.884
[7]
  combination Emax: 0.645
[8]
  combination Emax: 0.398
[10]
  combination Emax: 0.811
[11]
  combination Emax: 0.948
[12]
  combination Emax: 0.843
[13]
  combination Emax: 0.946
[14]
  Bliss excess: 0.0741
[15]
  Bliss excess: 0.0419
KELLY (Neuroblastoma)
  Bliss excess: 0.0404
AGS (Gastric Carcinoma) [16]
  Bliss excess: 0.0897
[18]
  Bliss excess: 0.0611
